This is an account of results in publication PMC3493109 (Biochemistry, 2012).

Type in all cases: binding
In test [1] the target is glyoxylate carboligase (GCL) (Escherichia coli, UniProt P0AEP7, I393A/V51D). The test is described as follows: CD titration at […] nm.
Test [2] deals with T1, glyoxylate carboligase (GCL) (Escherichia coli, UniProt P0AEP7, I393A). As to the kind of experiment: CD titration at […] nm.
The target in test [3] is T1, glyoxylate carboligase (GCL). As to the kind of experiment: CD titration at […] nm, Hill fit.

The structures appear in SMILES notation.

T1 sequence (P0AEP7 2-593 I393A limits assumed): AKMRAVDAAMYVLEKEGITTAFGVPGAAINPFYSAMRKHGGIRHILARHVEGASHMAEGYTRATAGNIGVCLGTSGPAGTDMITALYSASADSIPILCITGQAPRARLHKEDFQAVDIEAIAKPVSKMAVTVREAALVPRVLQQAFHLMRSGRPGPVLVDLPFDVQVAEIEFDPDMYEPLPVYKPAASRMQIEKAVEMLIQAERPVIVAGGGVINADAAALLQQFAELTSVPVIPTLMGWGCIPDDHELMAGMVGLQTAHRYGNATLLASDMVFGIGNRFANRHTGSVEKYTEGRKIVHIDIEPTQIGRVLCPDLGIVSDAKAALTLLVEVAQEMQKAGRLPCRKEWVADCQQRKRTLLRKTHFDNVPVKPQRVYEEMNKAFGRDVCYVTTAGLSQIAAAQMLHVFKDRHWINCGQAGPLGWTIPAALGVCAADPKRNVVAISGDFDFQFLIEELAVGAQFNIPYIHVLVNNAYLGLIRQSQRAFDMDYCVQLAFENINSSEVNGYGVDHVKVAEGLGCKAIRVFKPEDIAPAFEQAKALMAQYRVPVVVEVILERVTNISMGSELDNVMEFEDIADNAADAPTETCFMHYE
Chain of glyoxylate carboligase (GCL) (Escherichia coli, UniProt P0AEP7, I393A/V51D) (P0AEP7 2-593 V51D/I393A limits assumed): as the sequence (P0AEP7 2-593 I393A limits assumed) above, with V50D counted along it

On to `COP(=O)(O)C(C)=O` [MAP], for which the Kd (in general, a measure of binding affinity in units of concentration) in test [1] was determined as 110 ± 100 µM; in test [2] it was 1400 ± 90 µM.

In test [3], `CC(=O)C(=O)O` [pyruvate] came in with a Kd of 8.2 µM. This counts as single-digit micromolar.
